Tests used:
Bcl-2 = Bcl-2 inhibition assay in MCF-7 cells; type: cell-based, human; conditions: for Bcl-2 Conc.: treated at IC50 values
Method: Additionally, the treatment led to a notable reduction in anti-apoptotic Bcl-2 expression levels, with a fold decrease of roughly 6 for compound 3e and 8 for compound 5a. Compounds 3e and 5a markedly elevated the Bax/Bcl-2 ratio compared to the control untreated cells. […]
4.2.8. Bcl-2 inhibition assay
Mix all reagents thoroughly without foaming before use. Wash the microwells twice with approximately 300 μL Wash Buffer per well with thorough aspiration of microwell contents between washes. Take caution not to scratch the surface of the microwells. After the last wash, empty the wells and tap microwell strips on absorbent pad or paper towel to remove excess Wash Buffer. Use the microwell strips immediately after washing or place upside down on a wet absorbent paper for not […]
longer than 15 minutes. […] Add 100 μL of Sample Diluent in duplicate to all standard wells and to the blank wells. Prepare standard (1:2 dilution) in duplicate ranging from 32 ng/mL to 0.5 ng/mL. Add 100 μL of Sample Diluent, in duplicate, to the blank wells. Add 80 μL of Sample Diluent, in duplicate, to the sample wells. Add 20 μL of each Sample, in duplicate, to the designated wells. Add 50 μL of diluted biotin-conjugate to all wells, including the blank wells. Cover with a plate cover and incubate at room temperature, on a microplate shaker at 100 rpm if available, for 2 hours. Remove plate cover and empty the wells. Wash microwell strips 3 times as described in step 2. Add 100 μL of diluted Streptavidin-HRP to all wells, including the blank wells. Cover with a plate cover and incubate at room temperature, on a microplate shaker at 100 rpm if available, for 1 hour. Remove plate cover and empty the wells. Wash microwell strips 3 times as described in step 2.
Proceed to the next step. Pipette 100 μl of mixed TMB Substrate Solution to all wells, including the blanks. Incubate the microwell strips at room temperature (18° to 25°C) for about 15 minutes, if available on a rotator set at 100 rpm. Avoid direct exposure to intense light. The point, at which the substrate reaction is stopped, is often determined by the ELISA reader. Many ELISA readers record absorbance only up to 2.0 O.D. Therefore, the color development within individual microwells must be watched by the person running the assay and the substrate reaction stopped before positive wells are no longer properly detectable. Stop the enzyme reaction by quickly pipetting 100 μL of Stop Solution into each well, including the blank wells. It is important that the Stop Solution is spread quickly and uniformly throughout the microwells to completely inactivate the enzyme. Results must be read immediately after the Stop Solution is added or within one hour if the microwell strips are stored at 2 - 8°C in the dark. Read absorbance of each microwell on a spectrophotometer using 450 nm as the primary wavelength.
4.3. Statistical analysis
Computerized Prism 5 program was used to statistically analyzed data using one-way ANOVA test followed by Tukey’s as post ANOVA for multiple comparison at P ≤.05. Data were presented as […]

Q: Which “Bcl-2 Conc.” value (Bcl-2) does the source give for O=c1[nH]c2ccccc2c(O)c1/C=N/c1nc(-c2ccncc2)n[nH]1 [Compound 3e, (E)-4-hydroxy-3-(((3-(pyridin-4-yl)-1H-1,2,4-triazol-5-yl)imino)methyl)quinolin-2(1H)-one] here?
A: Its value is 0.84 ng/mL.

Q: And the melting point?
A: Its melting point is 327 to 329 °C.

Q: What does the source list for O=c1[nH]c2ccccc2c(O)c1C=Nc1ccc(NS(=O)(=O)c2ncccn2)cc1 [Compound 5a, N-(4-(((4-hydroxy-2-oxo-1,2-dihydroquinolin-3-yl)methylene)amino)phenyl) pyrimidine-2-sulfonamide]?
A: Bcl-2 Conc. (Bcl-2): 0.62 ng/mL; Bcl-2 Fold reduction (Bcl-2; versus untreated control): ~8
